# Reference: PubChem BioAssay AID651807 (Broad Institute, 2012)
# Where “and” joins values, the source holds several entries; their conditions need not be identical. Equal entries are not always repeated. Inconclusive results are not listed. Calls of active or inactive are those of the source.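 Rule for the calls: active = fitted curve rises past 40% activation at or below the top valid concentration, in every replicate test; inconclusive = replicate tests give mixed outcomes; inactive = all replicate tests inactive, or signal moves in the opposite direction.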
# Tests used:
# [1] = ARE-bla reporter activation in HepG2 – cell-based, beta-lactamase, dry powder, set 4, Keap1-Nrf2 interaction inhibitor project, dose response (AID 651807); settings: ARE-bla HepG2, beta-lactamase FRET ratio 460/530
# [2] = system: ARE-bla HepG2, beta-lactamase FRET ratio 460/530; assay: as above
SMILES,activation ([1]; at 68 µM (top of the series)),AC40 [2] [µM],further results
O=C(NC[C@@H]1c2ccccc2CCN1C(=O)[C@@H]1CCCC[C@@H]1C(=O)O)c1ccc(CN2CCOCC2)cc1,13.2% (inactive),,
COc1ccccc1CCNC(=O)[C@@H]1c2ccccc2CCN1C(=O)C1CCCCC1C(=O)O (stereo partly drawn),-0.279% (inactive),,
COc1ccc(CCN=C2C=C(NS(=O)(=O)c3c(C)cc(C)cc3C)c3ccccc3C2=O)cc1,,10.6,
CC(C)OC(=O)C(C(=O)C(F)(F)F)c1cc(NS(=O)(=O)c2ccccc2)c2ccccc2c1O (stereo not drawn),,27.2,
Cc1ccc(S(=O)(=O)NC(=O)[C@@H]2c3ccccc3CCN2C(=O)[C@@H]2CCCC[C@@H]2C(=O)O)cc1,13.2% (inactive) and 28.7% (inactive),,
O=C1c2ccccc2C(=O)N1CC1c2ccccc2CCN1C(=O)Cc1ccccc1 (stereo not drawn),,,activation ([1]; at 16 µM (top of the series)): 14.7% (inactive)
O=C(O)C1CCCCC1C(=O)N1CCc2ccccc2[C@H]1C(=O)NC12CC3CC(CC(C3)C1)C2 (stereo partly drawn),,45.6,
O=C(O)[C@H]1CCCC[C@H]1C(=O)NC(CN1C(=O)c2ccccc2C1=O)c1ccccc1 (stereo partly drawn),25.2% (inactive),,
Cc1ccc(S(=O)(=O)NNc2nc(N3CC(O)CC3C(=O)O)nc3ccccc23)cc1 (stereo not drawn),,13.5,
O=C(O)c1ccccc1C(=O)NC[C@@H]1c2ccccc2CCN1C(=O)[C@@H]1CCCC[C@@H]1C(=O)O,23.5% (inactive),,
O=C(O)[C@@H]1CCCN1C(=O)N1CCc2ccccc2[C@H]1CN1C(=O)c2ccccc2C1=O,27% (inactive),,
O=C(O)c1ccccc1C(=O)N1CCc2ccccc2C1CN1C(=O)c2ccccc2C1=O (stereo not drawn),,41.3,
Cc1ccc(S(=O)(=O)NNc2nc(C(C(=O)OC(C)C)C(=O)C(F)(F)F)nc3ccccc23)cc1 (stereo not drawn),,33,
O=C(O)C1CCCCC1C(=O)N1CCc2ccccc2C1CN1C(=O)c2ccccc2S1(=O)=O (stereo not drawn),35% (inactive),,
Cc1cc(C)c(S(=O)(=O)Nc2nc(NCCO)nc3ccccc23)c(C)c1,-10.1% (inactive),,
O=C(O)C1CCCCC1C(=O)N1CCc2ccccc2C1CN1C(=O)[C@H]2CCCC[C@H]2C1=O (stereo partly drawn),,29.1,
O=C(NC[C@@H]1c2ccccc2CCN1C(=O)[C@@H]1CCCC[C@@H]1C(=O)O)OCC1c2ccccc2-c2ccccc21,-31.2% (inactive),,
Cc1ccc(S(=O)(=O)NC[C@@H]2c3ccccc3CCN2C(=O)[C@@H]2CCCC[C@@H]2C(=O)O)c(C)c1,29.9% (inactive),,
Cc1ccc(S(=O)(=O)Nc2cc(C(C(=O)OC(C)C)C(=O)C(F)(F)F)c(O)c3ccccc23)cc1 (stereo not drawn),,9.52,
COC(=O)[C@@H]1CCCC[C@@H]1C(=O)N1CCc2ccccc2[C@H]1CN1C(=O)c2ccccc2C1=O,25.5% (inactive),,
Cc1cc(C)c(S(=O)(=O)Nc2cc(C(C(=O)OCc3ccccc3)C(=O)OCc3ccccc3)c(O)c3ccccc23)c(C)c1,,32.7,
Cc1cc(C)c(S(=O)(=O)Nc2nc(N(C)C)nc3ccccc23)c(C)c1,-5.99% (inactive),,

SMILES,activation ([1]; at 68 µM (top of the series)),AC40 [2] [µM],further results
O=C(Cc1ccccc1)NC[C@@H]1c2ccccc2CCN1C(=O)[C@@H]1CCCC[C@@H]1C(=O)O,6.95% (inactive),,
O=C(O)[C@H]1CCCC[C@H]1C(=O)N1CCc2ccccc2[C@H]1CNc1nc(Cl)nc2ccccc12,-4.32% (inactive),,
NC(=O)c1ccccc1C(=O)NC[C@@H]1c2ccccc2CCN1C(=O)[C@@H]1CCCC[C@@H]1C(=O)O,,48.7,
COC(=O)CNc1nc(NS(=O)(=O)c2c(C)cc(C)cc2C)c2ccccc2n1,-4.15% (inactive),,
O=C(O)C1CCCCC1C(=O)Nc1ccccc1CN1C(=O)c2ccccc2C1=O (stereo not drawn),6.93% (inactive),,
O=C1c2ccccc2C(=O)N1C[C@@H]1c2ccccc2CCN1C(=O)OCc1ccccc1,,38.2,
O=C1c2ccccc2C(=O)N1CC1=NCCc2ccccc21,9.14% (inactive),,
O=S(=O)(Nc1nc(NCC2CCCCC2)nc2ccccc12)c1ccccc1,,32.2,
Cc1ccccc1S(=O)(=O)Nc1cc(C(C(=O)OC(C)C)C(=O)C(F)(F)F)c(O)c2ccccc12 (stereo not drawn),,8.84,
O=C(NC[C@@H]1c2ccccc2CCN1C(=O)[C@@H]1CCCC[C@@H]1C(=O)O)c1ccccc1CO,11% (inactive),,
O=C1c2ccccc2C(=O)N1C[C@H]1NCCc2ccccc21,43.8% (inactive),,
Cc1cc(C)c(S(=O)(=O)Nc2nc(C(C(=O)OC(C)C)C(=O)C(F)(F)F)nc3ccccc23)c(C)c1 (stereo not drawn),,27.3,
Cc1ccc(S(=O)(=O)Nc2cc(C(C(=O)OC(C)C)C(=O)C(F)(F)F)c(O)c3ccccc23)c(C)c1 (stereo not drawn),,10.5,
O=C(O)[C@H]1CCCC[C@H]1C(=O)N1CCc2ccccc2C1CCN1C(=O)c2ccccc2C1=O (stereo partly drawn),17.3% (inactive),,
O=C(O)CC(=O)N1CCc2ccccc2C1CN1C(=O)c2ccccc2C1=O (stereo not drawn),31.6% (inactive),,
Cc1cc(C)c(S(=O)(=O)Nc2cc(C(C(=O)OC(C)C)C(=O)C(F)(F)F)c(O)c3ccccc23)c(C)c1 (stereo not drawn),,4.2,
O=C(NCCc1ccccc1)c1ccccc1C(=O)NC[C@@H]1c2ccccc2CCN1C(=O)C1CCCCC1C(=O)O (stereo partly drawn),,17,
O=C(NC[C@@H]1c2ccccc2CCN1C(=O)[C@@H]1CCCC[C@@H]1C(=O)O)c1ccccc1,6.57% (inactive),,
O=C(O)C1CCCCC1C(=O)NCC1c2ccccc2CCN1C(=O)Cc1ccccc1 (stereo not drawn),20.2% (inactive),,
O=C(O)C1CCCCC1C(=O)N1CCc2ccccc2[C@H]1C(=O)NCCc1ccccc1 (stereo partly drawn),2.65% (inactive),,
O=C(O)C1CCCCC1C(=O)N1CCCCC1CN1C(=O)c2ccccc2C1=O (stereo not drawn),16.6% (inactive),,
